Our source for the IL-6 production and T-cell proliferation rate values is patent US20260325559A1, “Immune Activator Agent” (Oryza Oil & Fat Chemical Co., Ltd., priority 2023, published 2026).

Experiment [1] relates to iMylc® cells (immature myeloid cells induced by differentiation from iPS cells), IL-6 production. The experiment is described as follows: IL-6 production activity in iMylc cells (immature dendritic cells). Format: cell-based, human. The following applies: 20 h, 37 °C, 5% CO2, DMSO 0.1% (v/v), ELISA of culture supernatant, FIG. 1. The method, then:
In this experiment, iMylc® cells (immature myeloid cells induced by differentiation from iPS cells) purchased from Mycen Technologies Inc. were used. These cells were cultured and subjected to evaluation tests using the dedicated maintenance medium for iMylc® cells provided by Mycen Technologies Inc.
The iMylc® cells were seeded into 96-well plates (1.0×10^4 cells/well/100 μL). After adding 100 μL/well of medium containing the test substance, the cells were incubated for 20 hours at 37 °C under 5% CO2. The final concentration of DMSO was adjusted to 0.1% (v/v). After incubation, the amount of IL-6 produced in the culture supernatant was measured using a commercially available kit (Human IL-6 ELISA MAX™ Deluxe Set, BioLegend) in accordance with the manufacturer's instructions.
On the technique in general: In an ELISA, binding on a coated surface is turned into a signal by an enzyme label.

Experiment [2] concerns CD4-positive helper T cells (human PBMCs cocultured with αMylc® cells). The experiment is described as follows: Mixed lymphocyte reaction (MLR), helper T cell proliferation induced by αMylc cells. The class given is cell-based. The following applies: 10 μM; αMylc cells treated 24 h, MLR coculture 7 days; N=3; FIG. 5. As for the experimental part:
The test was conducted using a mixed lymphocyte reaction (MLR). In this method, αMylc® cells (derived from human peripheral blood) that had shown IL-6 production-promoting activity were treated with GlcCer[d18:2(4E,8Z)/18:0], GlcCer[t18:1(8Z)/20:0], GlcCer[d18:2(4E,8Z)/20:0], or GlcCer[d18:2(4E,8Z)/26:0] at concentrations of 1 or 10 μM for 24 hours.
During this period, peripheral blood mononuclear cells (PBMCs) isolated from human blood were labeled with the cell membrane-permeable dye carboxyfluorescein diacetate succinimidyl ester (CFDA-SE) by incubation for 7 minutes. After staining, αMylc® cells and PBMCs were mixed at a 1:2 ratio (2×10^4 cells: 4×10^4 cells) and cocultured for 7 days.
Subsequently, the mean fluorescence intensity (MFI) of CD4 (APC-stained; helper T cell marker) and CFDA (cell proliferation indicator) was quantified by flow cytometry (N=3). In the present MLR assay, the activation index was defined as the proliferation rate of helper T cells, and the gating strategy used in this analysis is shown in FIG. 4.

As to `CCCCCCCCCCCCCCCCCCCCC(O)C(=O)N[C@@H](CO)[C@H](O)[C@H](O)CCCCCCCCCCCCCC` (stereo partly shown) [Cer[t18:0/22:0]], the IL-6 production entry in experiment [1] is listed as “significant activity”.
As for `CCCCCCCCC/C=C\CC/C=C/[C@@H](O)[C@H](CO[C@@H]1O[C@H](CO)[C@@H](O)[C@H](O)[C@H]1O)NC(=O)[C@H](O)CCCCCCCCCCCCCCCCCCCCCCCC` [GlcCer[d18:2(4E,8Z)/26:0]], in experiment [1], the IL-6 production entry is listed as “significant activity”. Also, in experiment [2], the T-cell proliferation rate result is recorded as “a significant increase in T-cell proliferation rate”.
For `CCCCCCCCC/C=C\CCC[C@@H](O)[C@@H](O)[C@H](CO[C@@H]1OC(CO)[C@@H](O)[C@@H](O)C1O)NC(=O)[C@H](O)CCCCCCCCCCCCCCCCCC` (stereo partly shown) [GlcCer[t18:1(8Z)/20:0]], the IL-6 production result in experiment [1] is “significant activity”.
